Laboratory results as given in patent US8415380B2 (Hoffmann-La Roche Inc., priority 2007, dated 2013).

| SMILES | melting point [°C] |
| --- | --- |
| Nc1ncc(-c2cccc(-c3nc(-c4ccc(Cl)s4)cc(C(F)(F)F)n3)c2)cn1 [Example 6, 5-{3-[4-(5-Chloro-thiophen-2-yl)-6-trifluoromethyl-pyrimidin-2-yl]-phenyl}-pyrimidin-2-ylamine] | 228 |
| NS(=O)(=O)c1ccc(-c2cccc(-c3nc(-c4ccc(Cl)s4)cc(C(F)(F)F)n3)c2)s1 [Example 7, 5-{3-[4-(5-Chloro-thiophen-2-yl)-6-trifluoromethyl-pyrimidin-2-yl]-phenyl}-thiophene-2-sulfonic acid amide] | 233 |
| CCC(=O)NS(=O)(=O)c1cccc(-c2cc(-c3nc(-c4ccc(C(F)(F)F)nc4)cc(C(F)(F)F)n3)ccn2)c1 [Example 11, N-Propionyl-3-{4-[4-trifluoromethyl-6-(6-trifluoromethyl-pyridin-3-yl)-pyrimidin-2-yl]-pyridin-2-yl}-benzenesulfonamide] | 242 |
| Nc1ccc(-c2cn(-c3nc(-c4ccc(C(F)(F)F)nc4)cc(C(F)F)n3)cn2)cn1 [Example 14, 5-{1-[4-Difluoromethyl-6-(6-trifluoromethyl-pyridin-3-yl)-pyrimidin-2-yl]-1H-imidazol-4-yl}-pyridin-2-ylamine] | 258 |
| NS(=O)(=O)c1cccc(-c2cccc(-c3nc(-c4ccc(C(F)(F)F)nc4)cc(C(F)F)n3)c2)c1 [Example 15, 3′-[4-Difluoromethyl-6-(6-trifluoromethyl-pyridin-3-yl)-pyrimidin-2-yl]-biphenyl-3-sulfonic acid amide] | 222 |
| NS(=O)(=O)c1cccc(-c2cc(-c3nc(-c4ccc(C(F)(F)F)nc4)cc(C(F)F)n3)ccn2)c1 [Example 16, 3-{4-[4-Difluoromethyl-6-(6-trifluoromethyl-pyridin-3-yl)-pyrimidin-2-yl]-pyridin-2-yl}-benzenesulfonamide] | 264.5 |
| NS(=O)(=O)c1ccc(-c2cccc(-c3nc(-c4ccc(C(F)(F)F)nc4)cc(C(F)F)n3)c2)s1 [Example 18, 5-{3-[4-Difluoromethyl-6-(6-trifluoromethyl-pyridin-3-yl)-pyrimidin-2-yl]-phenyl}-thiophene-2-sulfonic acid amide] | 245.5 |
| Cc1cc(-c2ccc(C(F)(F)F)nc2)nc(-c2ccnc(-c3cccc(S(N)(=O)=O)c3)c2)n1 [Example 21, 3-{4-[4-Methyl-6-(6-trifluoromethyl-pyridin-3-yl)-pyrimidin-2-yl]-pyridin-2-yl}-benzenesulfonamide] | 255 |
| Cc1cc(-c2ccc(C(F)(F)F)nc2)nc(-c2ccnc(-c3ccc(S(N)(=O)=O)s3)c2)n1 [Example 22, 5-{4-[4-Methyl-6-(6-trifluoromethyl-pyridin-3-yl)-pyrimidin-2-yl]-pyridin-2-yl}-thiophene-2-sulfonic acid amide] | 289 |
| Cc1cc(-c2ccc(C(F)(F)F)nc2)nc(-c2cccc(-c3cccc(S(N)(=O)=O)c3)c2)n1 [Example 23, 3′-[4-Methyl-6-(6-trifluoromethyl-pyridin-3-yl)-pyrimidin-2-yl]-biphenyl-3-sulfonic acid amide] | 220 |
| Cc1cc(-c2ccc(C(F)(F)F)nc2)nc(-c2cccc(-c3ccc(S(N)(=O)=O)s3)c2)n1 [Example 24, 5-{3-[4-Methyl-6-(6-trifluoromethyl-pyridin-3-yl)-pyrimidin-2-yl]-phenyl}-thiophene-2-sulfonic acid amide] | 237.5 |
| Cc1cc(-c2ccc(C(F)(F)F)cn2)nc(-c2cccc(-c3cccc(S(N)(=O)=O)c3)n2)n1 [Example 27, 3-{6-[4-Methyl-6-(5-trifluoromethyl-pyridin-2-yl)-pyrimidin-2-yl]-pyridin-2-yl}-benzenesulfonamide] | 246 to 252 |
| Cc1cc(-c2ccc(C(F)(F)F)nc2)nc(-c2cccc(-c3cccc(S(N)(=O)=O)c3)n2)n1 [Example 28, 3-{6-[4-Methyl-6-(6-trifluoromethyl-pyridin-3-yl)-pyrimidin-2-yl]-pyridin-2-yl}-benzenesulfonamide] | 254 |
